In patent publication US11559510B2, “Isoflavonoid composition with improved pharmacokinetics” (NOXOPHARM LIMITED, priority 2016, dated 2023):
Read-outs that look alike come from different tables or passages of the source.

Assay: Plasma pharmacokinetic studies of idronoxil in rats (rectal in cocoa butter vs intestinal in lipid emulsion)
Type: in vivo, Male Sprague-Dawley rats
Conditions: for Peak Area in rat plasma, Rat 2 / Peak Area in rat plasma, Rat 1 / Peak Area in rat plasma, Rat 3 / half-life / concentration at 0 h / concentration at 1 h / concentration at 2 h: 10 mg/kg; for half-life / concentration at 0 h / concentration at 1 h / concentration at 2 h: male, Sprague-Dawley, rat, plasma; for concentration at 0 h / concentration at 1 h / concentration at 2 h: other: intraduodenal infusion, Intestinal delivery (intraduodenal infusion)
Experimental: The objective of this study in rodents is to determine the plasma pharmacokinetics of idronoxil after rectal delivery and intestinal delivery in lipids (cocoa butter or emulsion).
Part (1); n=3 rats: Rectal administration of idronoxil in cocoa butter liquid formulation, collection of plasma.
Part (2); n=3 rats: Intestinal administration (intraduodenal infusion) of idronoxil in lipid formulation, collection of plasma.
3 mg idronoxil per rat (equivalent to 10 mg/kg idronoxil).
Preparation of lipid formulation for intestinal dosing: Briefly, 3 mg of idronoxil, 80 mg oleic acid and 50 mg Tween 80 were mixed in a glass vial as the lipid phase. An aqueous phase consisting of 5.6 mL phosphate buffered saline (PBS, pH 7.4) was subsequently added to the lipid phase and the formulation emulsified by ultrasonication with a Misonix XL 2020 ultrasonic processor equipped with a 3.2-mm microprobe tip running at an amplitude of 240 μm and a frequency of 20 kHz for 4 min at room temperature.
Dose administration: The lipid formulations were infused into the duodenum of the rats at 2.8 mL/h for 2 h. After that, normal saline was infused into the duodenum at 2.8 mL/h for the remainder of the experiment to hydrate the animals.
Preparation of cocoa butter formulation for rectal dosing: Briefly, 100 mg of the cocoa butter was weighed into a homogenizer glass tube and melted at 32 degrees Celsius. 3 mg of idronoxil was then added and the formulation mixed manually with the homogenizer.
Dose administration: The warmed/melted cocoa butter formulations were dosed into the rectum via placing the tip of a 3 cm plastic mouse oral gavage device attached to a 1 ml plastic syringe exactly 1 cm into the rectum. The formulation was dosed over 15 sec. After that, normal saline was infused into the duodenum at 2.8 mL/h for the remainder of the experiment to hydrate the animals.
Male Sprague-Dawley rats (n=3 per group, body weight 300±40 g) were used in the study. Each animal was fasted overnight prior to surgical cannulation of the carotid artery and duodenum.
The rats were anaesthetized (using isoflurane anesthesia), placed on a heated pad at 37° C. and cannulas were inserted into the duodenum (for dosing of lipid formulation and rehydration) and carotid artery (for blood collection).
Post-surgery, rats were re-hydrated for 0.5 h via intraduodenal infusion of normal saline at 2.8 mL/h prior to dosing via intraduodenal or rectal route.
Plasma collection: Plasma samples were collected for 8 h into Eppendorf tubes containing 5 μL of 1,000 IU/mL heparin. Aliquots (20 μL) of each hourly collected samples were transferred into labelled 1.5 mL Eppendorf tubes. Aliquoted and original bulk samples were stored at −20° C. until analysis.
Sample analysis: Plasma concentrations of idronoxil were measured by the HMST-lab using a validated HPLC-MS/MS method. Briefly, LC-MS analysis was performed on a Shimadzu 8050 triple quadrupole mass spectrometer coupled with a Shimadzu Nexera X2 UHPLC. MS analysis was conducted in positive mode electrospray ionisation and quantitation of the analytes performed in MRM mode. The column employed was a Phenomenex Kinetex EVO C18 column (2.6 μm particle size, 50×2.1 mm i.d.) equipped with a Phenomenex Security Guard column with C18 packing material. The column was maintained at 40-C. The mobile phase consisted of 0.2% formic acid in water (Mobile Phase A) and 100% acetonitrile (Mobile Phase B). Separations were conducted using a flow rate of 0.4 mL/min and an injection volume of 6 μL. Samples were controlled in the autosampler at a temperature of 10° C.
Non-compartmental pharmacokinetic (PK) analysis: The elimination rate constant (slope), half-life (i.e., 0.693/k), and mean residence time (MRT) were calculated using excel. The area under the plasma-concentration time curves from time zero to 8 h (AUC0-8 h) were calculated using the trapezoid rule to the last measured time point.

[1] = Intestinal administration of idronoxil, lipid emulsion, 1 hrs
[2] = Intestinal administration of idronoxil, lipid emulsion, 2 hrs
[3] = Intestinal administration of idronoxil, lipid emulsion, 3 hrs
[4] = Intestinal administration of idronoxil, lipid emulsion, 4 hrs
[5] = Intestinal administration of idronoxil, lipid emulsion, 5 hrs
[6] = Intestinal administration of idronoxil, lipid emulsion, 6 hrs
[7] = Intestinal administration of idronoxil, lipid emulsion, 7 hrs
[8] = Intestinal administration of idronoxil, lipid emulsion, 8 hrs
[9] = Rectal administration of idronoxil, cocoa butter, 1 hrs
[10] = Rectal administration of idronoxil, cocoa butter, 2 hrs
[11] = Rectal administration of idronoxil, cocoa butter, 3 hrs
[12] = Rectal administration of idronoxil, cocoa butter, 4 hrs
[13] = Rectal administration of idronoxil, cocoa butter, 5 hrs
[14] = Rectal administration of idronoxil, cocoa butter, 6 hrs
[15] = Rectal administration of idronoxil, cocoa butter, 7 hrs
[16] = Rectal administration of idronoxil, cocoa butter, 8 hrs
[17] = intestinally-dosed rats compared with rectally-dosed rats
[18] = lipid emulsion, read-out: Idronoxil Plasma Concentration Mean
[19] = lipid emulsion, read-out: Idronoxil Plasma Concentration Rat 2
[20] = lipid emulsion, read-out: Idronoxil Plasma Concentration Rat 1

Oc1ccc(C2=Cc3ccc(O)cc3OC2)cc1 [Idronoxil, 2H-1-Benzopyran-7-0,1,3-(4-hydroxyphenyl)]
Peak Area in rat plasma, Rat 2 (Intestinal administration of idronoxil, lipid emulsion, 0 hrs): 62,126
Peak Area in rat plasma, Rat 1 [1]: 236,465
Peak Area in rat plasma, Rat 2 [1]: 184,114
Peak Area in rat plasma, Rat 3 [1]: 222,037
Peak Area in rat plasma, Rat 1 [2]: 335,894
Peak Area in rat plasma, Rat 2 [2]: 238,289
Peak Area in rat plasma, Rat 3 [2]: 237,900
Peak Area in rat plasma, Rat 1 [3]: 34,094
Peak Area in rat plasma, Rat 2 [3]: 71,267
Peak Area in rat plasma, Rat 3 [3]: 32,152
Peak Area in rat plasma, Rat 1 [4]: 25,198
Peak Area in rat plasma, Rat 2 [4]: 14,571
Peak Area in rat plasma, Rat 3 [4]: 13,053
Peak Area in rat plasma, Rat 1 [5]: 26,342
Peak Area in rat plasma, Rat 2 [5]: 10,183
Peak Area in rat plasma, Rat 3 [5]: 13,297
Peak Area in rat plasma, Rat 1 [6]: 6,108
Peak Area in rat plasma, Rat 2 [6]: 8,531
Peak Area in rat plasma, Rat 3 [6]: 17,321
Peak Area in rat plasma, Rat 1 [7]: 8,023
Peak Area in rat plasma, Rat 2 [7]: 14,276
Peak Area in rat plasma, Rat 3 [7]: 8,371
Peak Area in rat plasma, Rat 1 [8]: 13,012
Peak Area in rat plasma, Rat 2 [8]: 9,110
Peak Area in rat plasma, Rat 3 [8]: 8,020
Peak Area in rat plasma, Rat 1 [9]: 57,590
Peak Area in rat plasma, Rat 2 [9]: 213,825
Peak Area in rat plasma, Rat 3 [9]: 46,167
Peak Area in rat plasma, Rat 1 [10]: 37,493
Peak Area in rat plasma, Rat 2 [10]: 179,554
Peak Area in rat plasma, Rat 3 [10]: 50,847
Peak Area in rat plasma, Rat 1 [11]: 37,603
Peak Area in rat plasma, Rat 2 [11]: 152,537
Peak Area in rat plasma, Rat 3 [11]: 45,812
Peak Area in rat plasma, Rat 1 [12]: 34,050
Peak Area in rat plasma, Rat 2 [12]: 117,814
Peak Area in rat plasma, Rat 3 [12]: 49,738
Peak Area in rat plasma, Rat 1 [13]: 61,323
Peak Area in rat plasma, Rat 2 [13]: 153,360
Peak Area in rat plasma, Rat 3 [13]: 75,786
Peak Area in rat plasma, Rat 1 [14]: 41,246
Peak Area in rat plasma, Rat 2 [14]: 114,191
Peak Area in rat plasma, Rat 3 [14]: 42,370
Peak Area in rat plasma, Rat 1 [15]: 46,844
Peak Area in rat plasma, Rat 2 [15]: 100,506
Peak Area in rat plasma, Rat 3 [15]: 25,104
Peak Area in rat plasma, Rat 1 [16]: 14,934
Peak Area in rat plasma, Rat 2 [16]: 80,236
Peak Area in rat plasma, Rat 3 [16]: 40,752
amount of idronoxil observed in plasma, rectal relative to oral administration (at 3 to 4 hours after administration): 3 to 4 times
time for which blood levels >20 ng/mL were achieved (idronoxil dosed orally (intestinal delivery model)): about 3 hours
time from administration by which the bulk of the total exposure is completed (intestinally-dosed rats): about 3 hours
maximum concentration of free idronoxil [17]: significantly greater
proportion of drug metabolized by Phase 2 metabolism [17]: considerably greater
half-life (oral delivery (intestinal delivery model)): ~45 min
half-life (rectal idronoxil): > 480 min
concentration at 0 h [18]: 33.8 ng/mL
concentration at 0 h [19]: 33.8 ng/mL
concentration at 1 h [18]: 118 ng/mL
concentration at 1 h [20]: 114 ng/mL
concentration at 1 h [19]: 114 ng/mL
concentration at 1 h (lipid emulsion, read-out: Idronoxil Plasma Concentration Rat 3): 128 ng/mL
concentration at 2 h [18]: 158 ng/mL
concentration at 2 h [20]: 200 ng/mL
